Species on record: Rattus norvegicus
Assay: DrugMatrix - Regimen: Daily Repeat
Type: toxicity, organism-based, Sprague-Dawley
Design: regimen Daily Repeat, gender Male, age 6-8 weeks
Conditions: in vivo, po, 72 h, route oral GAVAGE, time 3 day, vehicle .5 % CMC; for ABSOLUTE BASOPHIL / ABSOLUTE EOSINOPHIL / ABSOLUTE LYMPHOCYTE / ABSOLUTE MONOCYTE / ABSOLUTE SEGMENTED NEUTROPHIL / BASOPHIL / EOSINOPHIL / ERYTHROCYTE COUNT / HEMATOCRIT / HEMOGLOBIN / LEUKOCYTE COUNT / LYMPHOCYTE / MEAN CORPUSCULAR HEMOGLOBIN / MEAN CORPUSCULAR HEMOGLOBIN CONCENTRATION / MONOCYTE / NUCLEATED RED BLOOD CELLS / PLATELET COUNT / NEUTROPHIL: tissue Blood
[1] = 0 mg/kg, tissue Plasma, dose level Control
[2] = 33 mg/kg, tissue Plasma, dose level High
[3] = […], dose 3.3 mg/Kg, dose level Low
[4] = […], tissue Plasma, dose 3.3 mg/Kg, dose level Low

## AURANOFIN
0 mg/kg, dose level Control
  ABSOLUTE BASOPHIL: 0 CELLS/uL
  ABSOLUTE EOSINOPHIL: 8.83 CELLS/uL
  ABSOLUTE LYMPHOCYTE: 7222.33 CELLS/uL
  ABSOLUTE MONOCYTE: 0 CELLS/uL
  ABSOLUTE SEGMENTED NEUTROPHIL: 752.17 CELLS/uL
  BASOPHIL: 0%
  EOSINOPHIL: 0.17%
  ERYTHROCYTE COUNT: 5.22 x10E6/uL
  HEMATOCRIT: 32.6%
  HEMOGLOBIN: 12.43 G/DL
  LEUKOCYTE COUNT: 7.98 x10E3/uL
  LYMPHOCYTE: 91.17%
  MEAN CORPUSCULAR HEMOGLOBIN: 23.87 pg
  MEAN CORPUSCULAR HEMOGLOBIN CONCENTRATION: 38.18 G/DL
  MONOCYTE: 0%
  NUCLEATED RED BLOOD CELLS: 0 /100WBC
  PLATELET COUNT: 1082.33 x10E3/uL
[1]
  ALANINE AMINOTRANSFERASE: 42.17 u/L
  ALKALINE PHOSPHATASE: 451.17 u/L
  ASPARTATE AMINOTRANSFERASE: 76.17 u/L
  BLOOD UREA NITROGEN: 13.33 mg/dL
  CARBON DIOXIDE: 31.67 mmol/L
  CHLORIDE: 96.5 MEQ/L
  CHOLESTEROL: 78 mg/dL
  CREATINE PHOSPHOKINASE: 216.5 u/L
  CREATININE: 0.22 mg/dL
  GLUCOSE: 137 mg/dL
  LACTATE DEHYDROGENASE: 138.5 u/L
  PHOSPHORUS: 12.68 mg/dL
  POTASSIUM: 6.23 MEQ/L
  TOTAL BILIRUBIN: 0.15 mg/dL
  TOTAL PROTEIN: 6.33 G/DL
  URIC ACID: 1.1 mg/dL
33 mg/kg, dose level High
  ABSOLUTE BASOPHIL: 0 CELLS/uL
  ABSOLUTE EOSINOPHIL: 19 CELLS/uL
  ABSOLUTE LYMPHOCYTE: 6925.33 CELLS/uL
  ABSOLUTE MONOCYTE: 0 CELLS/uL
  ABSOLUTE SEGMENTED NEUTROPHIL: 722.33 CELLS/uL
  BASOPHIL: 0%
  EOSINOPHIL: 0.33%
  ERYTHROCYTE COUNT: 5.07 x10E6/uL
  HEMATOCRIT: 31.53%
  HEMOGLOBIN: 12.07 G/DL
  LEUKOCYTE COUNT: 7.67 x10E3/uL
  LYMPHOCYTE: 90.67%
  MEAN CORPUSCULAR HEMOGLOBIN: 23.77 pg
  MEAN CORPUSCULAR HEMOGLOBIN CONCENTRATION: 38.27 G/DL
  MONOCYTE: 0%
  NEUTROPHIL: 9%
  NUCLEATED RED BLOOD CELLS: 0 /100WBC
  PLATELET COUNT: 1030 x10E3/uL
[2]
  ALANINE AMINOTRANSFERASE: 55.67 u/L
  ALBUMIN: 3.8 G/DL
  ALKALINE PHOSPHATASE: 342.67 u/L
  ASPARTATE AMINOTRANSFERASE: 80.33 u/L
  BLOOD UREA NITROGEN: 13.33 mg/dL
  CARBON DIOXIDE: 31.67 mmol/L
  CHOLESTEROL: 93.33 mg/dL
  CREATINE PHOSPHOKINASE: 251.67 u/L
  CREATININE: 0.18 mg/dL
  GLUCOSE: 139 mg/dL
  LACTATE DEHYDROGENASE: 122 u/L
  SODIUM: 153.7 MEQ/L
  TOTAL BILIRUBIN: 0.2 mg/dL
  TOTAL PROTEIN: 5.87 G/DL
  URIC ACID: 1.13 mg/dL
[3]
  ABSOLUTE BASOPHIL: 0 CELLS/uL
  ABSOLUTE EOSINOPHIL: 46.33 CELLS/uL
  ABSOLUTE LYMPHOCYTE: 6434 CELLS/uL
  ABSOLUTE MONOCYTE: 30 CELLS/uL
  ABSOLUTE SEGMENTED NEUTROPHIL: 1123 CELLS/uL
  BASOPHIL: 0%
  EOSINOPHIL: 0.67%
  ERYTHROCYTE COUNT: 5.02 x10E6/uL
  HEMATOCRIT: 31.27%
  HEMOGLOBIN: 11.83 G/DL
  LEUKOCYTE COUNT: 7.63 x10E3/uL
  LYMPHOCYTE: 84.33%
  MEAN CORPUSCULAR HEMOGLOBIN: 23.57 pg
  MEAN CORPUSCULAR HEMOGLOBIN CONCENTRATION: 37.83 G/DL
  MONOCYTE: 0.33%
  NEUTROPHIL: 14.67%
  NUCLEATED RED BLOOD CELLS: 0.33 /100WBC
  PLATELET COUNT: 1052.33 x10E3/uL
[4]
  ALANINE AMINOTRANSFERASE: 42.33 u/L
  ALBUMIN: 4.1 G/DL
  ALKALINE PHOSPHATASE: 371 u/L
  ASPARTATE AMINOTRANSFERASE: 73 u/L
  BLOOD UREA NITROGEN: 13 mg/dL
  CARBON DIOXIDE: 33 mmol/L
  CHLORIDE: 97 MEQ/L
  CHOLESTEROL: 76.67 mg/dL
  CREATINE PHOSPHOKINASE: 140 u/L
  CREATININE: 0.18 mg/dL
  GLUCOSE: 143 mg/dL
  LACTATE DEHYDROGENASE: 96 u/L
  LIPASE: 8.33 u/L
  POTASSIUM: 6.12 MEQ/L
  SODIUM: 145.6 MEQ/L
  TOTAL BILIRUBIN: 0.17 mg/dL
  TOTAL PROTEIN: 6.17 G/DL
  URIC ACID: 1 mg/dL
